Measurements from US8716284B2, “Adamantyl diamide derivatives and uses of same” (H. Lundbeck A/S, priority 2008, dated 2014).

Target: T1, rat metabotropic glutamate receptor 5 (mGluR5) (Rattus norvegicus, UniProt P31424)
T1 construct: expressed in transfected cells; host or cells: HEK 293
Assay: Calcium mobilization assay (FLIPR) for negative or positive allosteric activity, HEK 293 cells
Assay type: cell-based
Conditions: HEK293, negative allosteric modulation, inhibition of EC80 glutamate response; read-out: FLIPR maximum inhibition
Description: The cDNA for rat metabotropic glutamate receptor 5 (mGluR5) was a generous gift from S. Nakanishi (Kyoto University, Kyoto, Japan). The mGluR5 was stably expressed in a HEK 293 cell line and grown in Dulbecco's Modified Eagle Medium (DMEM) (Invitrogen, Carlsbad, Calif.) with supplements (10% bovine calf serum, 4 mM glutamine, 100 units/mL penicillin, 100 μg/mL streptomycin and 0.75 mM G1418) at 37° C., 5% CO2. Twenty-four hours prior to assay, cells were seeded into 384-well black wall microtiter plates coated with poly-D-lysine. Just prior to assay, media was aspirated and cells dye-loaded (25 μL/well) with 3 μM Fluo-4/0.01% pluronic acid in assay buffer (Hank's Balanced Saline Solution (HBSS)): 150 mM NaCl, 5 mM KCl, 1 mM CaCl2, 1 mM MgCl2, plus 20 mM N-2-Hydroxyethylpiperazine-N′-2-ethanesulfonic acid (HEPES), pH 7.4, 0.1% bovine serum albumin (BSA) and 2.5 mM probenicid) for 1 hour in 5% CO2 at 37° C. After excess dye was discarded, cells were washed in assay buffer and layered with a final volume equal to 30 μL/well. Basal fluorescence is monitored in a fluorometric imaging plate reader (FLIPR) (Molecular Devices, Sunnyvale, Calif.) with an excitation wavelength of 488 nm and an emission range of 500 to 560 nm. Laser excitation energy was adjusted so that basal fluorescence readings were approximately 10,000 relative fluorescent units. Cells were stimulated with an EC20 or an EC80 concentration of glutamate in the presence of a compound to be tested, both diluted in assay buffer, and relative fluorescent units were measured at defined intervals (exposure=0.6 sec) over a 3 min period at room temperature. Basal readings derived from negative controls were subtracted from all samples. Maximum change in fluorescence was calculated for each well. Concentration-response curves derived from the maximum change in fluorescence were analyzed by nonlinear regression (Hill equation). A negative modulator can be identified from these concentration-response curves if a compound produces a concentration dependent inhibition of the EC80 glutamate response. […] Examples 11-163 also were tested in the above assay.
A positive modulator can be identified from these concentration-response curves if a compound produces a concentration dependent increase in the EC20 glutamate response.

T1 sequence (P31424 21-1171 isoform P31424-2 limits assumed): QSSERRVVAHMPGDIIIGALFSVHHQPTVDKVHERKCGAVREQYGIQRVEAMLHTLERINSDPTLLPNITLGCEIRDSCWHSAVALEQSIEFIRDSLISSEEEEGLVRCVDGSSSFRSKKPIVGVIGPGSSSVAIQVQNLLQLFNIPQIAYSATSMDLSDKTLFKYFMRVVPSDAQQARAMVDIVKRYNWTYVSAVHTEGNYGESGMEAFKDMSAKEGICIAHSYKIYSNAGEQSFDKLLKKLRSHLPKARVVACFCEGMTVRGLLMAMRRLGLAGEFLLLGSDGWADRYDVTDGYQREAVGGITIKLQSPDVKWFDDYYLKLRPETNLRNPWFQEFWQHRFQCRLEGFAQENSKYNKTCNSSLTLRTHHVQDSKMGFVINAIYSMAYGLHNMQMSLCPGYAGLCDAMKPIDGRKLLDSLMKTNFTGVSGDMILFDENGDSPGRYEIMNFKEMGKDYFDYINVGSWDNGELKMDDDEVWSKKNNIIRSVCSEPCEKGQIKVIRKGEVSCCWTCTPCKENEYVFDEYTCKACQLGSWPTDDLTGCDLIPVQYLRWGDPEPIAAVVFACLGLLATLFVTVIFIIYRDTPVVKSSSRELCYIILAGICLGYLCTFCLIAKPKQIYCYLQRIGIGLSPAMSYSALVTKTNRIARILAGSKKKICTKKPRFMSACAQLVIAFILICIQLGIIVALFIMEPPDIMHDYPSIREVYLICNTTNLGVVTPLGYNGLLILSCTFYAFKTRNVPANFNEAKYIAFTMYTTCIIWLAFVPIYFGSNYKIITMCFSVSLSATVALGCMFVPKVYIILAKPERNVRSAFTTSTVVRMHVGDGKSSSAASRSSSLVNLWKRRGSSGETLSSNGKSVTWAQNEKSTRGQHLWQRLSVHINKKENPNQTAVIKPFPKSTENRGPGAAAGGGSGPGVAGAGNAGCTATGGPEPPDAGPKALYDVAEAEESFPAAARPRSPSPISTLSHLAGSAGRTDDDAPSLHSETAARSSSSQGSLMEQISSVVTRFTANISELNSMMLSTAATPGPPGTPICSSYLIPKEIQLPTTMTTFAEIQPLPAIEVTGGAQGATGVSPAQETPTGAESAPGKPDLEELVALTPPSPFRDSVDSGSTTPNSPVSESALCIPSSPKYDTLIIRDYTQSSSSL

Compound | Emax
O=C(NC12CC3CC(C1)CC(NC(=O)c1cccc(Cl)c1)(C3)C2)c1cccc(Cl)c1 [Example 3, N,N′-(1,3-adamantylene)bis(3-chloro-benzamide)] | 90 to 99%
O=C(NC12CC3CC(C1)CC(NC(=O)c1ccncc1)(C3)C2)c1ccncc1 [Example 4, N,N′-(1,3-adamantylene)bis(4-pyridinecarboxamide)] | 90 to 99%
N#Cc1cccc(C(=O)NC23CC4CC(C2)CC(NC(=O)c2cccc(C#N)c2)(C4)C3)c1 [Example 5, N,N′-(1,3-adamantylene)bis(3-cyano-benzamide)] | 90 to 99%
O=C(NC12CC3CC(C1)CC(NC(=O)c1ccccn1)(C3)C2)c1cccc(Cl)c1 [Example 6, Pyridine-2-carboxylic acid [3-(3-chloro-benzoylamino)-adamantan-1-yl]-amide] | 90 to 99%
N#Cc1cccc(C(=O)NC23CC4CC(C2)CC(NC(=O)c2ccccn2)(C4)C3)c1 [Example 7, Pyridine-2-carboxylic acid[3-(3-cyano-benzoylamino)-adamantan-1-yl]-acid] | 90 to 99%
Cn1nc(C(=O)NC23CC4CC(CC(NC(=O)c5ccccn5)(C4)C2)C3)cc1-c1cccs1 [Example 8, Pyridine-2-carboxylic acid {3-[(1-methyl-5-thiophen-2-yl-1H-pyrazole-3-carbonyl)-amino]-adamantan-1-yl}-amide] | 90 to 99%
Cn1nc(C(=O)NC23CC4CC(CC(NC(=O)c5ccccn5)(C4)C2)C3)cc1-c1ccco1 [Example 9, Pyridine-2-carboxylic acid {3-[(5-furan-2-yl-1-methyl-1H-pyrazole-3-carbonyl)-amino]-adamantan-1-yl}-amide] | 90 to 99%
Cc1ccnc(C(=O)NC23CC4CC(C2)CC(NC(=O)c2cc(C)ccn2)(C4)C3)c1 [Example 11, N,N′-(1,3-Adamantylene)bis(4-methyl-pyridine-2-carboxamide)] | 63 to 99%
O=C(NC12CC3CC(C1)CC(NC(=O)c1ccc4ccccc4n1)(C3)C2)c1ccc2ccccc2n1 [Example 12, N,N′-(1,3-adamantylene)bis(quinoline-2-carboxamide)] | 63 to 99%
O=C(NC12CC3CC(C1)CC(NC(=O)c1cnc4ccccc4n1)(C3)C2)c1cnc2ccccc2n1 [Example 13, N,N′-(1,3-adamantylene)bis(quinoxaline-2-carboxamide)] | 63 to 99%
O=C(NC12CC3CC(C1)CC(NC(=O)c1cccs1)(C3)C2)c1cccs1 [Example 14, N,N′-(1,3-adamantylene)bis(thiophene-2-carboxamide)] | 63 to 99%
O=C(NC12CC3CC(C1)CC(NC(=O)c1cccc(F)c1)(C3)C2)c1cccc(F)c1 [Example 15, N,N′-(1,3-adamantylene)bis(3-fluorobenzamide)] | 63 to 99%
Cc1cccc(C(=O)NC23CC4CC(C2)CC(NC(=O)c2cccc(C)c2)(C4)C3)c1 [Example 16, N,N′-(1,3-adamantylene)bis(3-menthylbenzamide)] | 63 to 99%
Cn1ccc(C(=O)NC23CC4CC(C2)CC(NC(=O)c2ccn(C)n2)(C4)C3)n1 [Example 17, N,N′-(1,3-Adamantylene)bis(1-methyl-1H-pyrazole-3-carboxamide)] | 63 to 99%
Cc1cnc(C(=O)NC23CC4CC(C2)CC(NC(=O)c2ccn(C)n2)(C4)C3)cn1 [Example 18, 5-Methyl-pyrazine-2-carboxylic acid {3-[(1-methyl-1H-pyrazole-3-carbonyl)-amino]-adamantan-1-yl}-amide] | 63 to 99%
Cc1cccc(C(=O)NC23CC4CC(C2)CC(NC(=O)c2ccn(C)n2)(C4)C3)n1 [Example 20, 6-Methyl-pyridine-2-carboxylic acid {3-[(1-methyl-1H-pyrazole-3-carbonyl)-amino]-adamantan-1-yl}-amide] | 63 to 99%
Cc1cccc(C(=O)NC23CC4CC(C2)CC(NC(=O)c2cncc(C)n2)(C4)C3)n1 [Example 21, 6-Methyl-pyrazine-2-carboxylic acid {3-[(6-methyl-pyridine-2-carbonyl)-amino]-adamantan-1-yl}-amide] | 63 to 99%

Compound | Emax
Cc1cccc(C(=O)NC23CC4CC(C2)CC(NC(=O)c2cccc(N5CCOCC5)n2)(C4)C3)n1 [Example 22, 6-Morpholin-4-yl-pyridine-2-carboxylic acid-{3-[(6-methyl-pyridine-2-carbonyl)-amino]-adamantan-1-yl}-amide] | 63 to 99%
Cc1cccc(C(=O)NC23CC4CC(C2)CC(NC(=O)c2cccc(C(F)(F)F)n2)(C4)C3)n1 [Example 23, 6-Trifluoromethyl-pyridine-2-carboxylic acid {3-[(6-methyl-pyridine-2-carbonyl)-amino]-adamantan-1-yl}-amide] | 63 to 99%
Cc1cccc(C(=O)NC23CC4CC(CC(NC(=O)c5cccnn5)(C4)C2)C3)n1 [Example 24, Pyridazine-3-carboxylic acid {3-[(6-methyl-pyridine-2-carbonyl)-amino]-adamantan-1-yl}-amide] | 63 to 99%
Cc1cccc(C(=O)NC23CC4CC(C2)CC(NC(=O)c2cccc(CC#N)n2)(C4)C3)n1 [Example 25, 6-Cyanomethyl-pyridine-2-carboxylic acid {3-[(6-methyl-pyridine-2-carbonyl)-amino]-adamantan-1-yl}-amide] | 63 to 99%
Cc1cccc(C(=O)NC23CC4CC(CC(NC(=O)c5cc(C6CC6)on5)(C4)C2)C3)n1 [Example 26, 6-Methyl-pyridine-2-carboxylic acid {3-[(5-cyclopropyl-isoxazole-3-carbonyl)-amino]-adamantan-1-yl}-amide] | 63 to 99%
Cc1cccc(C(=O)NC23CC4CC(C2)CC(NC(=O)c2ccc5cccnc5n2)(C4)C3)n1 [Example 27, [1,8]Naphthyridine-2-carboxylic acid {3-[(6-methyl-pyridine-2-carbonyl)-amino]-adamantan-1-yl}-amide] | 63 to 99%
Cc1ccnc(C(=O)NC23CC4CC(C2)CC(NC(=O)c2cccc(C)n2)(C4)C3)c1 [Example 28, 4-Methyl-pyridine-2-carboxylic acid {3-[(6-methyl-pyridine-2-carbonyl)-amino]-adamantan-1-yl}-amide] | 63 to 99%
Cc1cccc(C(=O)NC23CC4CC(C2)CC(NC(=O)c2coc(C)n2)(C4)C3)n1 [Example 29, 6-Methyl-pyridine-2-carboxylic acid {3-[(2-methyl-oxazole-4-carbonyl)-amino]-adamantan-1-yl}-amide] | 63 to 99%
Cc1cccc(C(=O)NC23CC4CC(CC(NC(=O)c5cccc(F)c5)(C4)C2)C3)n1 [Example 30, 6-Methyl-pyridine-2-carboxylic acid [3-(3-fluoro-benzoylamino)-adamantan-1-yl]-amide] | 63 to 99%
Cc1cccc(C(=O)NC23CC4CC(C2)CC(NC(=O)c2ccno2)(C4)C3)n1 [Example 31, 6-Methyl-pyridine-2-carboxylic acid {3-[(isoxazole-5-carbonyl)-amino]-adamantan-1-yl}-amide] | 63 to 99%
Cc1cccc(C(=O)NC23CC4CC(CC(NC(=O)c5cccc(C#N)c5)(C4)C2)C3)n1 [Example 32, 6-Methyl-pyridine-2-carboxylic acid [3-(3-cyano-benzoylamino)-adamantan-1-yl]-amide] | 63 to 99%
Cc1cccc(C(=O)NC23CC4CC(CC(NC(=O)c5ccc6occc6c5)(C4)C2)C3)n1 [Example 33, 6-Methyl-pyridine-2-carboxylic acid {3-[(benzofuran-5-carbonyl)-amino]-adamantan-1-yl}-amide] | 63 to 99%
Cc1cccc(C(=O)NC23CC4CC(C2)CC(NC(=O)c2cnc5ccccc5n2)(C4)C3)n1 [Example 34, Quinoxaline-2-carboxylic acid {3-[(6-methyl-pyridine-2-carbonyl)-amino]-adamantan-1-yl}-amide] | 63 to 99%
Cc1cccc(C(=O)NC23CC4CC(CC(NC(=O)c5ccncn5)(C4)C2)C3)n1 [Example 35, Pyrimidine-4-carboxylic acid {3-[(6-methyl-pyridine-2-carbonyl)-amino]-adamantan-1-yl}-amide] | 63 to 99%
Cc1cccc(C(=O)NC23CC4CC(C2)CC(NC(=O)c2nc5ccccc5s2)(C4)C3)n1 [Example 36, Benzothiazole-2-carboxylic acid {3-[(6-methyl-pyridine-2-carbonyl)-amino]-adamantan-1-yl}-amide] | 63 to 99%
Cc1cccc(C(=O)NC23CC4CC(C2)CC(NC(=O)c2nn(C)c5ccccc25)(C4)C3)n1 [Example 37, 1-Methyl-1H-indazole-3-carboxylic acid {3-[(6-methyl-pyridine-2-carbonyl)-amino]-adamantan-1-yl}-amide] | 63 to 99%
